Earlier results in PubChem BioAssay AID1259409 (Chemical Carcinogenesis Research Information System (CCRIS), 2018).

Test system: rodent chemically induced tumor inhibition, incidence and multiplicity
Test: CCRIS tumor inhibitor studies
Conditions: Route [Inhibitor]: ORAL

**Q.** With CC1=C(/C=C/C(C)=C/C=C/C(C)=C/C(=O)Nc2ccc(O)cc2)C(C)(C)CCC1 as the compound, how does the “tumour outcome (control, treated, inhibition, significance)” value (Carcinogen: 1,2-DIMETHYLHYDRAZINE, 540-73-8, Dose [Inhibitor]: 2.0 MMOL/KG DIET DAILY STARTING 12 D AFTER CARCINOGEN TREATMENT THROUGH ABOUT 8 MO AFTER CARCINOGEN DOSE (STUDY DURATION, Species: RAT, Strain/Sex: F344/MALE, Target Tissue: Type of Lesion: COLON: ADENOCARCINOMA, Dose [Carcinogen]: 150 MG/KG BW ONCE, Promoter: NONE USED) read?
**A.** 10/39 (26%), 5/30 (17%), 35%, not significant

**Q.** And the “tumour outcome (control, treated, inhibition, significance)” value (Carcinogen: 1,2-DIMETHYLHYDRAZINE, 540-73-8, Dose [Inhibitor]: 2.0 MMOL/KG DIET DAILY STARTING 12 D AFTER CARCINOGEN TREATMENT THROUGH ABOUT 8 MO AFTER CARCINOGEN DOSE (STUDY DURATION, Species: RAT, Strain/Sex: F344/MALE, Target Tissue: Type of Lesion: COLON: ADENOMA, Dose [Carcinogen]: 150 MG/KG BW ONCE, Promoter: NONE USED)?
**A.** 23/39 (59%), 7/30 (23%), 61%, p<0.05

**Q.** What about the “tumour outcome (control, treated, inhibition, significance)” value (Carcinogen: 4-(METHYLNITROSAMINO)-1-(3-PYRIDYL)-1-BUTANONE [64091-50-5], Dose [Inhibitor]: 2 MMOL/KG IN DIET FOR 17 WK BEGINNING 1 WK PRIOR TO FIRST CARCINOGEN DOSE (STUDY DURATION: 17 WK), Species: MOUSE, Strain/Sex: A/J/FEMALE, Target Tissue: Type of Lesion: LUNG: ADENOMA, Dose [Carcinogen]: 10 UMOL ONCE 1 WK POST FIRST INHIBITOR DOSE (STUDY DURATION: 17 WK), Promoter: NONE) of the same compound?
**A.** 100%, 100%, 0%, not significant

**Q.** What about the “tumour outcome (control, treated, inhibition, significance)” value (Carcinogen: 4-(METHYLNITROSAMINO)-1-(3-PYRIDYL)-1-BUTANONE [64091-50-5], Dose [Inhibitor]: 2 MMOL/KG IN DIET FOR 53 WK BEGINNING 1 WK PRIOR TO FIRST CARCINOGEN DOSE (STUDY DURATION: 53 WK), Species: MOUSE, Strain/Sex: A/J/FEMALE, Target Tissue: Type of Lesion: LUNG: ADENOMA OR ADENOCARCINOMA, Dose [Carcinogen]: 10 UMOL ONCE 1 WK POST FIRST INHIBITOR DOSE (STUDY DURATION: 53 WK), Promoter: NONE) of the same compound?
**A.** 100%, 100%, 0%, not significant

**Q.** And the “tumour outcome (control, treated, inhibition, significance)” value (Carcinogen: 4-(METHYLNITROSAMINO)-1-(3-PYRIDYL)-1-BUTANONE [64091-50-5], Dose [Inhibitor]: 4 MMOL/KG IN DIET FOR 17 WK BEGINNING 1 WK PRIOR TO FIRST CARCINOGEN DOSE (STUDY DURATION: 17 WK), Species: MOUSE, Strain/Sex: A/J/FEMALE, Target Tissue: Type of Lesion: LUNG: ADENOMA, Dose [Carcinogen]: 10 UMOL ONCE 1 WK POST FIRST INHIBITOR DOSE (STUDY DURATION: 17 WK), Promoter: NONE)?
**A.** 100%, 100%, 0%, not significant

**Q.** What about the “tumour outcome (control, treated, inhibition, significance)” value (Carcinogen: 4-(METHYLNITROSAMINO)-1-(3-PYRIDYL)-1-BUTANONE [64091-50-5], Dose [Inhibitor]: 4 MMOL/KG IN DIET FOR 53 WK BEGINNING 1 WK PRIOR TO FIRST CARCINOGEN DOSE (STUDY DURATION: 53 WK), Species: MOUSE, Strain/Sex: A/J/FEMALE, Target Tissue: Type of Lesion: LUNG: ADENOMA OR ADENOCARCINOMA, Dose [Carcinogen]: 10 UMOL ONCE 1 WK POST FIRST INHIBITOR DOSE (STUDY DURATION: 53 WK), Promoter: NONE) of the same compound?
**A.** 100%, 93%, 7%, not significant

**Q.** What about the “tumour outcome (control, treated, inhibition, significance)” value (Carcinogen: 7,12-DIMETHYLBENZ[A]ANTHRACENE, 57-97-6, Dose [Inhibitor]: 0, 1 MMOL/KG IN DIET FOR THE DURATION OF STUDY BEGINNING 1 WK PRIOR TO CARCINOGEN DOSE (STUDY DURATION: 105 WK), Species: RAT, Strain/Sex: SPRAGUE-DAWLEY/FEMALE, Target Tissue: Type of Lesion: MAMMARY GLAND: TUMOR, Dose [Carcinogen]: 15 MG IN 1 ML SESAME OIL ONCE, Promoter: NONE USED) of the same compound?
**A.** 88%, 73%, 17%, not significant

**Q.** And the “tumour outcome (control, treated, inhibition, significance)” value (Carcinogen: 7,12-DIMETHYLBENZ[A]ANTHRACENE, 57-97-6, Dose [Inhibitor]: 0, 2 MMOL/KG IN DIET FOR THE DURATION OF STUDY BEGINNING 1 WK PRIOR TO CARCINOGEN DOSE (STUDY DURATION: 105 WK), Species: RAT, Strain/Sex: SPRAGUE-DAWLEY/FEMALE, Target Tissue: Type of Lesion: MAMMARY GLAND: TUMOR, Dose [Carcinogen]: 15 MG IN 1 ML SESAME OIL ONCE, Promoter: NONE USED)?
**A.** 88%, 33%, 63%, not significant

**Q.** And the “tumour outcome (control, treated, inhibition, significance)” value (Carcinogen: 7,12-DIMETHYLBENZ[A]ANTHRACENE, 57-97-6, Dose [Inhibitor]: 0, 2 MMOL/KG OF DIET FOR 15.5 WK BEGINNING 10 D PRIOR TO CARCINOGEN DOSE (STUDY DURATION: 17 WK), Species: RAT, Strain/Sex: SPRAGUE-DAWLEY/FEMALE, Target Tissue: Type of Lesion: MAMMARY GLAND: TUMOR, Dose [Carcinogen]: 15 MG IN 1 ML OF SESAME OIL ONCE AT 50 D OF AGE, Promoter: NONE USED)?
**A.** 92%, 58%, 37%, not calculated

**Q.** And the “tumour outcome (control, treated, inhibition, significance)” value (Carcinogen: 7,12-DIMETHYLBENZ[A]ANTHRACENE, 57-97-6, Dose [Inhibitor]: 0, 2 MMOL/KG OF DIET FOR 18.5 WK BEGINNING 10 D PRIOR TO CARCINOGEN DOSE (STUDY DURATION: 18.5 WK), Species: RAT, Strain/Sex: SPRAGUE-DAWLEY/FEMALE, Target Tissue: Type of Lesion: MAMMARY GLAND: TUMOR, Dose [Carcinogen]: 15 MG IN 1 ML OF SESAME OIL ONCE AT 50 D OF AGE, Promoter: NONE USED)?
**A.** 83%, 33%, 60%, not calculated

**Q.** And the “tumour outcome (control, treated, inhibition, significance)” value (Carcinogen: 7,12-DIMETHYLBENZ[A]ANTHRACENE, 57-97-6, Dose [Inhibitor]: 0, 2 MMOL/KG OF DIET FOR 20 D BEGINNING 10 D PRIOR TO CARCINOGEN DOSE (STUDY DURATION: 18.5 WK), Species: RAT, Strain/Sex: SPRAGUE-DAWLEY/FEMALE, Target Tissue: Type of Lesion: MAMMARY GLAND: TUMOR, Dose [Carcinogen]: 15 MG IN 1 ML OF SESAME OIL ONCE AT 50 D OF AGE, Promoter: NONE USED)?
**A.** 100%, 67%, 33%, not calculated

**Q.** What about the “tumour outcome (control, treated, inhibition, significance)” value (Carcinogen: 7,12-DIMETHYLBENZ[A]ANTHRACENE, 57-97-6, Dose [Inhibitor]: 0.75 MMOL/KG OF DIET IN 25 ML OF THE VEHICLE (ETHANOL/TRICAPRYLIN 1:4 (VOL/VOL) PLUS 6% (WT/VOL) ALPHA-TOCOPHEROL) BEGIN, Species: RAT, Strain/Sex: SPRAGUE-DAWLEY/FEMALE, Target Tissue: Type of Lesion: MAMMARY GLAND: TUMOR, Dose [Carcinogen]: 75 MG/KG BW IN 1.0 ML SESAME OIL ONCE, Promoter: NONE USED) of the same compound?
**A.** 70%, 65%, 7%, not significant
